Assay results published in ChEMBL document CHEMBL5247580, “Discovery of novel AdipoRon analogues as potent anti-inflammatory agents against nonalcoholic steatohepatitis” (Eur J Med Chem, 2022).
Values belong to the compound of their own block, whether it stands above or below them. The source made the active and inactive calls. The rule behind the calls is not given here.

Legend:
RAW264.7 [1] = experiment: Anti-inflammatory activity in LPS induced mouse RAW264.7 cells assessed as inhibition of IL-1beta mRNA expression at 10 uM incubated for 12 hrs followed by LPS stimulation and measured after 6 hrs by RT-PCR method; type: functional, cell-based; details: time 18.0 hrs
RAW264.7 [2] = experiment: Cytotoxicity against mouse RAW264.7 cells at 50 uM by MTT assay relative to control; type: functional
RAW264.7 [3] = experiment: Anti-inflammatory activity in LPS induced mouse RAW264.7 cells assessed as inhibition of IL-6 mRNA expression at 10 uM incubated for 12 hrs followed by LPS stimulation and measured after 6 hrs by RT-PCR method; type: functional, cell-based; details: time 18.0 hrs
RAW264.7 [4] = experiment: Anti-inflammatory activity in LPS induced mouse RAW264.7 cells assessed as inhibition of IL-1beta mRNA expression incubated for 12 hrs followed by LPS stimulation and measured after 6 hrs by RT-PCR method; type: functional, cell-based
[5] = target: T1, 5'-AMP-activated protein kinase (Mus musculus) (UniProt Q5EG47+Q8BRK8+Q6PAM0+O54950+Q91WG5+Q9R078+Q8BGM7); experiment: Agonist activity at AMPK in mouse RAW264.7 cells assessed as stimulation of AMPK phosphorylation at upto 10 uM; type: cell-based; details: filed as agonist
Mus musculus [6] = experiment: Anti-fibrosis effect in HFCFD-induced NASH C57BL/6JNifdc mouse model assessed as downregulation of Col3a1 mRNA level at 25 to 50 mg/kg, po administered once daily for 4 weeks; type: functional, organism-based; details: dose 25-50 mg/kg
Mus musculus [7] = experiment: Antiinflammatory activity in HFCFD-induced NASH po dosed C57BL/6JNifdc mouse model assessed as downregulation of TNFalpha expression administered once daily for 4 weeks; type: functional, organism-based; details: dose 25-50 mg/kg
Mus musculus [8] = experiment: Reduction in hepatic steatosis in HFCFD-induced NASH C57BL/6JNifdc mouse model assessed as decrease in fatty acids at 25 to 50 mg/kg, po administered once daily for 4 weeks by Oil red-O staining based assay; type: functional, organism-based; details: dose 25-50 mg/kg
Mus musculus [9] = experiment: Anti-fibrosis effect in HFCFD-induced NASH C57BL/6JNifdc mouse model assessed as downregulation of alpha-SMA mRNA level at 25 to 50 mg/kg, po administered once daily for 4 weeks; type: functional, organism-based; details: dose 25-50 mg/kg
Mus musculus [10] = experiment: Reduction in hepatic steatosis in HFCFD-induced NASH po dosed C57BL/6JNifdc mouse model assessed as decrease in lipid droplets administered once daily for 4 weeks by H and E staining based analysis; type: functional, organism-based; details: dose 25-50 mg/kg
Mus musculus [11] = experiment: Antiinflammatory activity in HFCFD-induced NASH C57BL/6JNifdc mouse model assessed as decrease in AST serum level at 50 mg/kg, po administered once daily for 4 weeks by automated biochemical analyzer; type: functional, organism-based
Mus musculus [12] = experiment: Antiinflammatory activity in HFCFD-induced NASH po dosed C57BL/6JNifdc mouse model assessed as downregulation of CCL5 expression administered once daily for 4 weeks; type: functional, organism-based; details: dose 25-50 mg/kg
Mus musculus [13] = experiment: Reduction in hepatic steatosis in HFCFD-induced NASH C57BL/6JNifdc mouse model assessed as reduction in liver weight at 50 mg/kg, po administered once daily for 4 weeks; type: functional, organism-based
RAW264.7 [14] = experiment: Antiinflammatory activity in mouse RAW264.7 cells assessed as downregulation of NF-kappaB p65 phosphorylation level at upto 10 uM by Western blot analysis; type: functional, cell-based
[15] = target: T1, 5'-AMP-activated protein kinase (Mus musculus); experiment: Agonist activity at AMPK in mouse C2C12 cells assessed as increase in PGC-1alpha mRNA level; type: cell-based; details: filed as agonist, dose <= 30.0 µM
Mus musculus [16] = experiment: Antiinflammatory activity in HFCFD-induced NASH C57BL/6JNifdc mouse model assessed as change inflammatory infiltration at 50 mg/kg, po administered once daily for 4 weeks by H and E staining based analysis; type: functional, organism-based
Mus musculus [17] = experiment: Antiinflammatory activity in NASH C57BL/6JNifdc po dosed mouse model assessed as decrease in NF-kappaB p65 phosphorylation level administered once daily for 4 weeks by Western blot analysis; type: functional, organism-based; details: dose 25-50 mg/kg
Mus musculus [18] = experiment: Reduction in hepatic steatosis in HFCFD-induced NASH C57BL/6JNifdc mouse model assessed as decrease in neutral fat at 25 to 50 mg/kg, po administered once daily for 4 weeks by Oil red-O staining based assay; type: functional, organism-based; details: dose 25-50 mg/kg
Mus musculus [19] = experiment: Reduction in hepatic steatosis in HFCFD-induced NASH C57BL/6JNifdc mouse model assessed as decrease in triglycerides at 25 to 50 mg/kg, po administered once daily for 4 weeks by Oil red-O staining based assay; type: functional, organism-based; details: dose 25-50 mg/kg
Mus musculus [20] = experiment: Antiinflammatory activity in HFCFD-induced NASH C57BL/6JNifdc mouse model assessed as decrease in ALT serum level at 50 mg/kg, po administered once daily for 4 weeks by automated biochemical analyzer; type: functional, organism-based
[21] = target: T1, 5'-AMP-activated protein kinase (Mus musculus); experiment: Agonist activity at AMPK in mouse C2C12 cells assessed as stimulation of AMPK phosphorylation at upto 30 uM; type: cell-based; details: filed as agonist
Mus musculus [22] = experiment: Reduction in hepatic steatosis in HFCFD-induced NASH C57BL/6JNifdc mouse model assessed as reduction in liver/body weight ratio at 50 mg/kg, po administered once daily for 4 weeks; type: functional, organism-based
Mus musculus [23] = experiment: Antiinflammatory activity in HFCFD-induced NASH po dosed C57BL/6JNifdc mouse model assessed as downregulation of CCL4 expression administered once daily for 4 weeks; type: functional, organism-based; details: dose 25-50 mg/kg
Mus musculus [24] = experiment: Reduction in hepatic steatosis in HFCFD-induced NASH po dosed C57BL/6JNifdc mouse model assessed as decrease in hepatocellular vacuolization administered once daily for 4 weeks by H and E staining based analysis; type: functional, organism-based; details: dose 25-50 mg/kg
Mus musculus [25] = experiment: Antiinflammatory activity in HFCFD-induced NASH po dosed C57BL/6JNifdc mouse model assessed as downregulation of IL-1beta expression administered once daily for 4 weeks; type: functional, organism-based; details: dose 25-50 mg/kg
Mus musculus [26] = experiment: Antiinflammatory activity in HFCFD-induced NASH po dosed C57BL/6JNifdc mouse model assessed as downregulation of CCL2 expression administered once daily for 4 weeks; type: functional, organism-based; details: dose 25-50 mg/kg
Mus musculus [27] = experiment: Antiinflammatory activity in HFCFD-induced NASH po dosed C57BL/6JNifdc mouse model assessed as downregulation of IL-12beta expression administered once daily for 4 weeks; type: functional, organism-based; details: dose 25-50 mg/kg
Mus musculus [28] = experiment: Anti-fibrosis effect in HFCFD-induced NASH C57BL/6JNifdc mouse model assessed as decrease in collagen accumulation at 25 to 50 mg/kg, po administered once daily for 4 weeks by Sirius red staining based analysis; type: functional, organism-based; details: dose 25-50 mg/kg
Mus musculus [29] = experiment: Anti-fibrosis effect in HFCFD-induced NASH C57BL/6JNifdc mouse model assessed as downregulation of Col1a1 mRNA level at 25 to 50 mg/kg, po administered once daily for 4 weeks; type: functional, organism-based; details: dose 25-50 mg/kg

IC50 (RAW264.7 [4]): 6.54 µM
Structure (SMILES): Cc1ccc(CN2CCC(NC(=O)C(C)(C)CCCOc3cc(C)ccc3C)CC2)cc1
Activity (RAW264.7 [2]): 42.67%

IC50 (RAW264.7 [4]): 4.15 µM
Structure (SMILES): COc1ccc(CN2CCC(NC(=O)C(C)(C)CCCOc3cc(C)ccc3C)CC2)cc1
Activity (RAW264.7 [2]): 7.19%

IC50 (RAW264.7 [4]): 5.17 µM
Structure (SMILES): Cc1ccc(C)c(OCCCC(C)(C)C(=O)NC2CCN(Cc3ccc(C(F)(F)F)cc3)CC2)c1
Activity (RAW264.7 [2]): 93.12%

IC50 (RAW264.7 [4]): 14.8 µM
Structure (SMILES): Cc1ccc(C)c(OCCCC(C)(C)C(=O)NC2CCN(Cc3ccc(Cl)cc3)CC2)c1
Activity (RAW264.7 [2]): 68.99%

IC50 (RAW264.7 [4]): 4.56 µM
Structure (SMILES): Cc1ccc(C)c(OCCCC(C)(C)C(=O)NC2CCN(Cc3ccc(F)cc3)CC2)c1
Activity (RAW264.7 [2]): 78.02%

More lines, now with the values behind:

Structure (SMILES): O=C(COc1ccc(C(=O)c2ccccc2)cc1)NC1CCN(Cc2ccccc2)CC1
Activity (RAW264.7 [1]): Active
Activity (RAW264.7 [2]): 96.32%
Activity (RAW264.7 [3]): Active
IC50 (RAW264.7 [4]): 15 µM

Structure (SMILES): COc1ccc(CN2CCC(NC(=O)C(C)(C)Oc3ccc(C(=O)c4ccc(Cl)cc4)cc3)CC2)cc1
Activity (RAW264.7 [2]): 4.08%
IC50 (RAW264.7 [4]): 4.57 µM

Structure (SMILES): Cc1ccc(C)c(OCCCC(C)(C)C(=O)NC2CCN(Cc3ccccc3)CC2)c1
Activity (RAW264.7 [1]): Active

Structure (SMILES): CC(C)(Oc1ccc(C(=O)c2ccc(Cl)cc2)cc1)C(=O)NC1CCN(Cc2ccccc2)CC1
Activity (RAW264.7 [1]): Active

Structure (SMILES): CC(C)(Oc1ccc(C(=O)c2ccc(Cl)cc2)cc1)C(=O)NC1CCN(Cc2ccc(OC(F)(F)F)cc2)CC1
Activity (RAW264.7 [2]): 88.34%
IC50 (RAW264.7 [4]): 9.76 µM

Structure (SMILES): Cc1ccc(CN2CCC(NC(=O)C(C)(C)Oc3ccc(C(=O)c4ccc(Cl)cc4)cc3)CC2)cc1
Activity (RAW264.7 [2]): 4.64%
IC50 (RAW264.7 [4]): 8.56 µM

Structure (SMILES): CC(C)(Oc1ccc(C(=O)c2ccc(Cl)cc2)cc1)C(=O)NC1CCN(Cc2ccc(C(F)(F)F)cc2)CC1
Activity [5]: Active
Activity (Mus musculus [6]): Active
Activity (RAW264.7 [2]): 98.46%
Activity (Mus musculus [7]): Dose-Dependent Effect
Activity (Mus musculus [8]): Active
Activity (Mus musculus [9]): Active
Activity (Mus musculus [10]): Dose-Dependent Effect
Activity (Mus musculus [11]): Active
Activity (Mus musculus [12]): Dose-Dependent Effect
Activity (Mus musculus [13]): Active
Activity (RAW264.7 [14]): Active
Activity [15]: Dose-Dependent Effect
Activity (Mus musculus [16]): Active
Activity (Mus musculus [17]): Dose-Dependent Effect
Activity (Mus musculus [18]): Active
Activity (Mus musculus [19]): Active
Activity (Mus musculus [20]): Active
Activity [21]: Active
Activity (Mus musculus [22]): Active
Activity (Mus musculus [23]): Dose-Dependent Effect
Activity (Mus musculus [24]): Dose-Dependent Effect
Activity (Mus musculus [25]): Dose-Dependent Effect
Activity (Mus musculus [26]): Dose-Dependent Effect
Activity (Mus musculus [27]): Dose-Dependent Effect
IC50 (RAW264.7 [4]): 4.4 µM
Activity (Mus musculus [28]): Active
Activity (Mus musculus [29]): Active

Structure (SMILES): CC(C)(Oc1ccc(Cl)cc1)C(=O)NC1CCN(Cc2ccccc2)CC1
Activity (RAW264.7 [1]): inactive

Structure (SMILES): COc1ccc(CN2CCC(NC(=O)COc3ccc(C(=O)c4ccc(Cl)cc4)cc3)CC2)cc1
Activity (RAW264.7 [2]): 3.33%
IC50 (RAW264.7 [4]): 10.2 µM
